Results on two molecules are retold here after patent US20240255464A1 (priority 2021, published 2024).

Several values for one entry are separate records, joined by “and”; a condition that tells them apart may be missing. Equal values may be shown once. Read-outs that look alike come from different tables or passages of the source.

The subject of this experiment is HL-1 cells. The format is cell-based.
Setting [1] is: HL-1 cells, 100 nM nifedipine in Tyrode's solution, 60 s.
The mark [2] stands for this setting: HL-1 cells, 100 nM nifedipine in Tyrode's solution, 120 s.

For the molecule `COC(=O)C1=C(C)NC(C)=C(C(=O)OC)C1c1ccccc1[N+](=O)[O-]` [Nifedipine, nifedipine], under setting [1], the APD50 was 106.0 ms, the APD90 turned out to be 172.9 ms, the Amplitude was 102.9 mV and the “Refractory Period” value stood at 964.8 ms. Also, under setting [2], the APD50 stood at 59.1 ms, the APD90 is 90.1 ms, the Amplitude worked out at 88.9 mV and the “Refractory Period” value was 1022.3 ms.
As for `NC1=N[C@H](O)[C@H]2[C@H]3O[C@]4(O)O[C@@H]([C@@H](O)[C@@]2(N1)[C@@H]4O)[C@]3(O)CO` [TTX, tetrodotoxin], the APD50 was 81.2 ms and 65.5 ms; the APD90 was 166.6 ms and 141.8 ms; the Amplitude is 113.4 mV and 91.9 mV; the “Refractory Period” value was 948.4 ms and 958.6 ms. In addition, the “effect on action potential amplitude” value is listed as “lowers the amplitude”, the “effect on action potential duration at 50% or 90% repolarization” value is recorded as “reduces the action potential duration”, the “effect on repolarization duration” value is on record as “shortening the repolarization duration” and the “effect on spike amplitude” value was “reducing the spike amplitude”. For the same molecule, the “reversibility of the effect” value is recorded as “reversible”.
